Measured values as given in patent US10324085B2, “Systems and methods for the monitoring of protein complex formation in cells” (priority 2013, dated 2019).
Several values for one entry are separate records, joined by “and”; a condition that tells them apart may be missing. Identical values can stand only once. Like-named read-outs stand apart in the source and are kept apart here.

Tests used:
ERα-ERα [1] = target: T1, ERα-ERα (Homo sapiens, UniProt P03372); assay: cell-based
T1 construct: expressed in transfected cells; host or cells: HEK293
Target sequence in this assay (P03372 whole entry): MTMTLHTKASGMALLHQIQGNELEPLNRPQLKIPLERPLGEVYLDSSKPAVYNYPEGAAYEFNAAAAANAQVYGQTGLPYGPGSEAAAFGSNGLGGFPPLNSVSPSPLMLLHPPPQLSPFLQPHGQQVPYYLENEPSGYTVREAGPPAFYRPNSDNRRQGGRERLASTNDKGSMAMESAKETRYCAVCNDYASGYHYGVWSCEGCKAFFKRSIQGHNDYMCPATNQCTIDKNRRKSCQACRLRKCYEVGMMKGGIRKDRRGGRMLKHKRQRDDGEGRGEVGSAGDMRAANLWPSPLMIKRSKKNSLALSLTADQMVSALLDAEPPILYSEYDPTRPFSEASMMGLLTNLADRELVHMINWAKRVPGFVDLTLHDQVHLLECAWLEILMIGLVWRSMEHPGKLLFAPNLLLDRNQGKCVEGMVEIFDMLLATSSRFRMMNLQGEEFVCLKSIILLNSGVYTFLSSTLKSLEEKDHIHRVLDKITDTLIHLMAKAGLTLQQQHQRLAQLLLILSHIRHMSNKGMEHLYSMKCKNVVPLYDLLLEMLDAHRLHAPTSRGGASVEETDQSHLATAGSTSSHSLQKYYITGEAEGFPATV

ERα-ERβ [2] = target: T2, ERα-ERβ (Homo sapiens, UniProt P03372+Q92731); assay: cell-based
T2 construct: expressed in transfected cells; host or cells: HEK293
Target sequence in this assay (Q92731 whole entry): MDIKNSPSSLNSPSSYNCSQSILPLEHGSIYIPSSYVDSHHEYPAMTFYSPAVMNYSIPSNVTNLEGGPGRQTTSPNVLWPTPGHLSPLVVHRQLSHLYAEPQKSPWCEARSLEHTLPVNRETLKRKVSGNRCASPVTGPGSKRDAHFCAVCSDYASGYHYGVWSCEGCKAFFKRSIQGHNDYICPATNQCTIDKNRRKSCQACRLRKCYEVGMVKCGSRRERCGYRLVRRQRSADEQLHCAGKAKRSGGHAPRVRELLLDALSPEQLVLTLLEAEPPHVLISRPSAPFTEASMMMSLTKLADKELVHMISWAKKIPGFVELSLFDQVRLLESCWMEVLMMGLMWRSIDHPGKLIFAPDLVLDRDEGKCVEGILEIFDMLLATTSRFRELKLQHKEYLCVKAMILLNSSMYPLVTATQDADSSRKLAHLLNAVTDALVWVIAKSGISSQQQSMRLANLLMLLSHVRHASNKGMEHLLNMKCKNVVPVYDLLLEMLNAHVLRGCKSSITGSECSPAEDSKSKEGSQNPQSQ
Target sequence in this assay (P03372 whole entry): as the sequence (P03372 whole entry) above
Target sequence in this assay (as listed by the source): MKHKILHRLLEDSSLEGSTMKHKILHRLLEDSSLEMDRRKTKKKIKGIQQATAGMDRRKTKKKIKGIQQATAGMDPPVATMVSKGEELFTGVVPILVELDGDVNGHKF

ERα-ERα [3] = target: T1, ERα-ERα; assay: cell-based; settings: BRETFect titration curves, HEK293 cells, average of three biological replicates; read-out: EC50 (nM), recruitment of SRC1-RID, ERα-ERα
Target sequence in this assay (P03372 whole entry): as the sequence (P03372 whole entry) above
Target sequence in this assay (Q15788 626-753, further chain): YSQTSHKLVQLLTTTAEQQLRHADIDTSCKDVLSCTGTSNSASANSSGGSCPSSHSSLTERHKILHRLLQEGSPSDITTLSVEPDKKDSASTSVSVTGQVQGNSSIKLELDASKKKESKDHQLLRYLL

ERα-ERβ [4] = target: T2, ERα-ERβ; assay: cell-based; settings: BRETFect titration curves, HEK293 cells, average of three biological replicates; read-out: EC50 (nM), recruitment of SRC1-RID, ERα-ERβ
Target sequence in this assay (Q15788 626-753): as the sequence (Q15788 626-753, further chain) above
Target sequence in this assay (P03372 whole entry): as the sequence (P03372 whole entry) above
Target sequence in this assay (Q92731 whole entry): as the sequence (Q92731 whole entry) above

ERβ = ERβ (Homo sapiens, UniProt Q92731)
[5] = target: T3, RXRγ-RARα-CoRNBox complex (Homo sapiens, UniProt P10276); assay: BRETFect RXRγ-RARα-CoRNBox ternary complex in HEK293 cells; format: cell-based; settings: 1 μM, 40 min
T3 construct: expressed in transfected cells; host or cells: HEK293
T3 sequence (P10276 1-462): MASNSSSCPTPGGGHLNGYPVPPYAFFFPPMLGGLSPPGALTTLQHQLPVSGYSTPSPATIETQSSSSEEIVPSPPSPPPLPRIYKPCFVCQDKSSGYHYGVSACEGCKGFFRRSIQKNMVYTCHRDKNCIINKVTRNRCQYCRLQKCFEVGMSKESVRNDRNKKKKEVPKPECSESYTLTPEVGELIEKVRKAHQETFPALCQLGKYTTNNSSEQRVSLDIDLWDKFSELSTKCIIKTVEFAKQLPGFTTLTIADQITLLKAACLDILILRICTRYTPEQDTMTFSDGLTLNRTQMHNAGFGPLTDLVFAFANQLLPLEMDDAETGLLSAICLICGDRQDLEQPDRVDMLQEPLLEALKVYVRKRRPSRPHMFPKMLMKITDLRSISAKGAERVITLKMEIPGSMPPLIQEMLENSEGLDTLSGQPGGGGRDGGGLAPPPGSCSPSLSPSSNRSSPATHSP
T3 sequence (P48443 1-463 partner): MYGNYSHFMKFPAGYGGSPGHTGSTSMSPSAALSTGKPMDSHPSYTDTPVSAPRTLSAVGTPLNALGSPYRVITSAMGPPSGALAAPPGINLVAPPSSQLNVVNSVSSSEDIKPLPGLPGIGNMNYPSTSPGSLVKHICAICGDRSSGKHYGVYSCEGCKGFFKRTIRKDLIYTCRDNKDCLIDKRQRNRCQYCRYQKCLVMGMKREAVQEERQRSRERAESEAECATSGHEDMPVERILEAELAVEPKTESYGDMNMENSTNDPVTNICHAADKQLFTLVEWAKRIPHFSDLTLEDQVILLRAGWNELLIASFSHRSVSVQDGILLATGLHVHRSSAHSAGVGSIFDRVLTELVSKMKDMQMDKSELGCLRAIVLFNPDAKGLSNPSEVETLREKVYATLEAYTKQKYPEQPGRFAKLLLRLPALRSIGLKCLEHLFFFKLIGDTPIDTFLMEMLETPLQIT
Procedure: Cells were treated for 40 min with vehicle DMSO (0) or all-trans retinoic acid (ATRA) before coelenterazine H addition and BRET measurement.

Sequence of ERβ (Q92731 whole entry, species assumed): as the sequence (Q92731 whole entry) above

How did the “BRETFect signal (delta BRET), coactivator motif recruitment to ERα dimers” value (ERα-ERα [1]) turn out when 4-hydroxytamoxifen [OHT] was run?
Its value is “suppresses coactivator motif recruitment”.

How did the EC50 (ERα-ERα [1]; BRETFect titration curves, HEK293 cells, average of three biological replicates, read-out: EC50 (nM), recruitment of the coactivator motif peptide, ERα-ERα) turn out when `CCCc1c(-c2ccc(O)cc2)nn(-c2ccc(O)cc2)c1-c1ccc(O)cc1` [PPT, propylpyrazole triol] was run?
Its EC50 is 0.5 nM and 0.547 nM.

What about the EC50 (ERα-ERβ [2]; BRETFect titration curves, HEK293 cells, average of three biological replicates, read-out: EC50 (nM), recruitment of the coactivator motif peptide, ERα-ERβ) of the same compound?
The EC50 was 28 nM and 28.4 nM.

What about the “% of the BRETmax for CoApep recruitment by ERα-ERβ heterodimer” value (ERα-ERβ [2]; relative to BRETmax observed with E2) of the same compound?
Its value is 50%.

And the EC50 (ERα-ERα [3])?
The EC50 was 0.968 nM.

What about the EC50 (ERα-ERβ [4]) of the same compound?
Its EC50 is 25.1 nM.

Which “recruitment of CoApep-Venus to ERβ, BRET” value (ERβ) does the source give for `C[C@]12CC[C@@H]3c4ccc(O)cc4CC[C@H]3[C@@H]1CC[C@@H]2O` [E2, 17-beta-Estradiol] here?
The value was “E2-induced”.

`CC1=C(/C=C/C(C)=C/C=C/C(C)=C/C(=O)O)C(C)(C)CCC1` [ATRA, all-trans retinoic acid] was tested. Which “RXRγ-RARα-CoRNBox ternary complex, net BRET” value [5] did it give?
The value was “the ternary complex is disassembled”.
